Consider 46 molecules from patent publication US11236084B2, “Substituted azaindoline derivatives as NIK inhibitors” (Janssen Pharmaceutica NV, priority 2017, dated 2022).

pIC50: −log10 of the molar value. Read-outs that look alike come from different tables or passages of the source. Some results are limits rather than exact numbers.

As usually defined, the pIC50 is the IC50 on a negative log10 scale, so that one unit is a factor of ten.

The target in assay [1] is recombinant human NF-kappaB-inducing kinase (NIK/MAP3K14) (Homo sapiens, UniProt Q99558). Description: Biological Assay B: inhibition of auto-phosphorylation of recombinant human NIK/MAP3K14 (AlphaScreen), performed at 2 locations. Type of assay: biochemical. As to conditions: averaged values. The method, boiled down:
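Run at two separate sites: 1 h, 25° C. reactions containing 0.2 nM GST-NIK, 25 microM ATP and compound (1% DMSO) in Tris pH 7.5/MgCl2 buffer. Phosphorylation detected via anti-phospho-IKK Ser176/180 antibody with AlphaScreen beads; IC50 fitted to % inhibition.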
In general terms: Bead proximity is the source of the signal in Alpha formats.

Assay [2] relates to P-IKKα levels in L363 (NIK translocated multiple myeloma) cells. Description: Biological Assay C: effect of compounds on P-IKKα levels in L363 (NIK translocated multiple myeloma) cells, performed at 2 locations. The settings on record: Homo sapiens, L363 cells, P-IKKα levels, averaged values. Type of assay: cell-based, human. On the procedure:
Effect of Compounds on P-IKKα Levels in L363 (NIK Translocated Multiple Myeloma) Cells
All compounds tested were dissolved in DMSO and further dilutions were made in culture medium. Final DMSO concentration was 1% (v/v) in cell assays. The human L363 cells (ATCC) were cultured in RPMI 1640 medium supplemented with GlutaMax and 10% fetal calf serum (PAA). Cells were routinely maintained at densities of 0.2×10^6 cells per ml-1×10^6 cells per ml at 37° C. in a humidified 5% CO2 atmosphere. Cells were passaged twice a week splitting back to obtain the low density. Cells were seeded in 96 well plates (Nunc 167008) at 2×10^6 per ml media in a volume of 75 μl per well plus 25 μl […] recombinant human B-cell activating factor (BAFF/BLyS/TNFSF13B). Seeded cells were incubated at 37° C. in a humidified 5% CO2 atmosphere for 24 hr. Drugs and/or solvents were added (20 μl) to a final volume of 120 μl. Following 2 hr treatment plates were removed from the incubator and cell lysis was achieved by the addition of 30 μl 5× lysis buffer followed by shaking on a plate shaker at 4° C. for 10 min. At the end of this incubation lysed cells were centrifuged at 800×g for 20 min at 4° C. and the lysate was assessed for P-IKKα levels by sandwich immuno-assay carried out in anti-rabbit antibody coated Mesoscale plates. Within an experiment, the results for each treatment were the mean of 2 replicate wells. For initial screening purposes, compounds were tested using an 8 point dilution curve (serial 1:3 dilutions). For each experiment, controls (containing MG132 and BAFF but no test drug) and a blank incubation (containing MG132 and BAFF and 1 μM ADS125117, a test concentration known to give full inhibition) were run in parallel. The blank incubation value was subtracted from all control and sample values. To determine the IC50 a sigmoidal curve was fitted to the plot of % inhibition of control P-IKKα levels versus Log10 compound concentration.
Assay C was performed at 2 different locations.
Data for the compounds of the invention in the above assays are provided in Table A (the values in Table are averaged values over all measurements on all batches of a compound; values as IC50 (nM)). (‘n.c.’ means not calculated: ‘Co.’ means compound)

Where [3] appears, read: location 1, AlphaScreen auto-phosphorylation, read-out: Assay B location 1 IC50.
Where [4] appears, read: L-363, location 2, read-out: Assay C location 2 IC50.
Setting [5] is: location 2, AlphaScreen auto-phosphorylation, read-out: Assay B location 2 IC50.

recombinant human NF-kappaB-inducing kinase (NIK/MAP3K14), sequence (Q99558 whole entry): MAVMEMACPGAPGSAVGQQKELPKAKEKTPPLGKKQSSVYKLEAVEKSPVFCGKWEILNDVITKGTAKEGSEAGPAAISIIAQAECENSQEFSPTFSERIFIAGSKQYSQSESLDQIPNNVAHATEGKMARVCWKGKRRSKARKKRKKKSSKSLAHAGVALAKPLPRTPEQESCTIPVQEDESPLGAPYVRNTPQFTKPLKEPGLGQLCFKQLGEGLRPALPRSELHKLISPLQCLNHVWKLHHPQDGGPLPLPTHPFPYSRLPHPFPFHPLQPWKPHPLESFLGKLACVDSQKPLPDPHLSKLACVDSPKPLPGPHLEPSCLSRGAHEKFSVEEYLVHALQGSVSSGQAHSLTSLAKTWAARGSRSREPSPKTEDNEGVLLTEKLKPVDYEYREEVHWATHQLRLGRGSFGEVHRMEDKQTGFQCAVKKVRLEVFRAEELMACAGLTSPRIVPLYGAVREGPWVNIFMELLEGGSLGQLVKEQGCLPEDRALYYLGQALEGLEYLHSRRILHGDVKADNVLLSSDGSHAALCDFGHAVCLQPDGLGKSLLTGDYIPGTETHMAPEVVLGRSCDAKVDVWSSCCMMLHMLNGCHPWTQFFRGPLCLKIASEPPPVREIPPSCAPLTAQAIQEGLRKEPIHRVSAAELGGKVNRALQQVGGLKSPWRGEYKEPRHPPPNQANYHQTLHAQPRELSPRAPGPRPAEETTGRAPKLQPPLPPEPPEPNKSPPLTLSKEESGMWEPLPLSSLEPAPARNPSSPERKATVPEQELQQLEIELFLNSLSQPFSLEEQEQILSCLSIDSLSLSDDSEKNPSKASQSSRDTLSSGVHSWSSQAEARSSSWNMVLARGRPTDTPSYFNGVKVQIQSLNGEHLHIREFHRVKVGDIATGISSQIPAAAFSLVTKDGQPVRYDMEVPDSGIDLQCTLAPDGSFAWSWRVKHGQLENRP

Take `CC1(CO)CNc2ncc(-c3ccnc(Nc4cc(Cl)ccc4S(C)(=O)=O)n3)cc21` (stereo not shown) [Compound 335]: the pIC50 in assay [1] (setting [3]) is 6.57; in assay [2] (L-363, location 1, read-out: Assay C location 1 IC50), less than 5.00.

Consider `CC(=O)NCc1ccc(C)c(Nc2nccc(-c3cnc4c(c3)C(C)(C)CN4)n2)c1` [Compound 43], for which the pIC50 in assay [2] (setting [4]) was 6.55.

Regarding `Cc1cc(C(=O)NC2CCOCC2)ccc1Nc1nccc(-c2cnc3c(c2)C(C)(C)CN3)n1` [Compound 36], the pIC50 in assay [2] (setting [4]) is 6.21.

With `CC(=O)NCc1cccc(Nc2nccc(-c3cnc4c(c3)C(C)(C)CN4)n2)c1C` [Compound 42], in assay [2] (setting [4]), the pIC50 was 6.78.

With `Cc1cc(N2CCOCC2)c(C#N)cc1Nc1nccc(-c2cnc3c(c2)C(C)(CO)CN3)n1` (single isomer, unassigned) [Compound 262], the pIC50 in assay [1] (setting [3]) and in assay [1] (setting [5]) was 6.89 in each case.

Turning to `CCC1(CCO)CNc2ncc(-c3ccnc(Nc4ccc(C(=O)NC5CCOCC5)cc4OC)n3)cc21` (stereo not shown) [Compound 158], in assay [1] (setting [5]), the pIC50 was 7.82.

Turning to `Cc1c(Cl)cccc1Nc1nccc(-c2cnc3c(c2)C(C)(CO)CN3)n1` (stereo not shown) [Compound 224], the pIC50 in assay [1] (setting [5]) was 7.42.

With `COc1ccc(C(C)C)cc1Nc1nccc(-c2cnc3c(c2)C(C)(CO)CN3)n1` (stereo not shown) [Compound 209], the pIC50 in assay [1] (setting [5]) is 6.96.

With `Cc1cc(N2CCOCC2)c(F)cc1Nc1nccc(-c2cnc3c(c2)C(C)(CO)CN3)n1` (stereo not shown) [Compound 366], the pIC50 in assay [1] (setting [3]) is 7.64; in assay [1] (setting [5]), 7.89.

Turning to `COc1cc(-c2ncc[nH]2)ccc1Nc1nccc(-c2cnc3c(c2)C(C)(CO)CN3)n1` (stereo not shown) [Compound 163], in assay [1] (setting [5]), the pIC50 was 7.92.

For `COc1cc(N2CC(OC)C2)c(Cl)cc1Nc1nccc(-c2cnc3c(c2)C(C)(CO)CN3)n1` (stereo not shown) [Compound 287], the values for the negative logarithm of the IC50 (pIC50) in assay [1] (setting [3]) and in assay [1] (setting [5]) were 8.41 and 8.89, respectively.

For `CCOC1CN(c2cc(OC)c(Nc3nccc(-c4cnc5c(c4)C(C)(CO)CN5)n3)cc2Cl)C1` (stereo not shown) [Compound 357], the pIC50 in assay [1] (setting [3]) is 7.92; in assay [1] (setting [5]), 8.00.

Consider `Cc1cc(C(=O)NC2CCN(C)CC2)ccc1Nc1nccc(-c2cnc3c(c2)C(C)(C)CN3)n1` [Compound 35], for which the pIC50 in assay [2] (setting [4]) was 6.07.

Turning to `COc1cc(N2CC3(CCOCC3)C2)c(Cl)cc1Nc1ncc(Cl)c(-c2cnc3c(c2)C(C)(CO)CN3)n1` (single isomer, unassigned) [Compound 348], in assay [1] (location 1, NIK auto-phosphorylation, AlphaScreen, read-out: Assay B location 1 IC50), the pIC50 is 7.83.

For the molecule `Cc1ccc(OC(F)(F)F)cc1Nc1nccc(-c2cnc3c(c2)C(C)(CO)CN3)n1` (stereo not shown) [Compound 210], the pIC50 in assay [1] (setting [5]) was 7.51.

On to `COc1ccc(Br)cc1Nc1nccc(-c2cnc3c(c2)C(C)(CO)CN3)n1` (stereo not shown) [Compound 181], for which the pIC50 in assay [1] (setting [5]) was 8.66.

As for `COc1cc(Cl)c(C)c(Nc2nccc(-c3cnc4c(c3)C(C)(CO)CN4)n2)c1` (stereo not shown) [Compound 230], the pIC50 in assay [1] (setting [3]) was 8.13; in assay [1] (setting [5]) it was 8.18.

Turning to `COCCN1CCC(c2cc(OC)c(Nc3nccc(-c4cnc5c(c4)C(C)(CO)CN5)n3)cc2Cl)CC1` (stereo not shown) [Compound 319], the pIC50 is 8.38 in assay [1] (setting [3]) and 8.92 in assay [1] (setting [5]).

On to `COCCN(C)c1cc(OC)c(Nc2nccc(-c3cnc4c(c3)C(C)(CO)CN4)n2)cc1Cl` (single isomer, unassigned) [Compound 5R], for which the pIC50 in assay [1] (setting [5]) is 7.50.

Regarding `CC1(CO)CNc2ncc(-c3ccnc(Nc4cc(Cl)c(N5CCOCC5)cc4Cl)n3)cc21` (single isomer, unassigned) [Compound 265], the pIC50 was 7.32 in assay [1] (setting [3]) and 7.45 in assay [1] (setting [5]).

For the molecule `COc1cc(N2CCC(OC)CC2)c(Cl)cc1Nc1nccc(-c2cnc3c(c2)C(C)(CO)CN3)n1` (stereo not shown) [Compound 327], the pIC50 in assay [1] (setting [3]) was 8.20; in assay [1] (setting [5]), 8.64.

On to `COCC(C)(C)CNc1cc(OC)c(Nc2nccc(-c3cnc4c(c3)C(C)(CO)CN4)n2)cc1F` (stereo not shown) [Compound 323], for which the pIC50 was 7.64 in assay [1] (setting [3]) and 8.14 in assay [1] (setting [5]).

Turning to `Cc1cc(N2CCOCC2)c(C#N)cc1Nc1nccc(-c2cnc3c(c2)C(C)(CO)CN3)n1` (single isomer, unassigned) [Compound 264], the pIC50 is 8.18 in assay [1] (setting [3]) and 8.22 in assay [1] (setting [5]).

For the molecule `COc1cc(N2CCOCC2)c(Cl)cc1Nc1nccc(-c2cnc3c(c2)C(C)(CO)CN3)n1` (single isomer, unassigned) [Compound 6S], the pIC50 in assay [1] (setting [3]) was 8.40; in assay [1] (setting [5]) it was 8.62.

For the molecule `COc1ccc(Nc2nccc(-c3cnc4c(c3)C(C)(CO)CN4)n2)c(OC)c1` (stereo not shown) [Compound 164], the pIC50 in assay [1] (setting [5]) is 8.25.

As for `COc1ccc(C#N)cc1Nc1nccc(-c2cnc3c(c2)C(C)(CO)CN3)n1` (single isomer, unassigned) [Compound 248], the pIC50 in assay [1] (setting [5]) is 8.89.

On to `COCCCN(C)c1cc(OC)c(Nc2nccc(-c3cnc4c(c3)C(C)(CO)CN4)n2)cc1Cl` (stereo not shown) [Compound 252], for which the pIC50 in assay [1] (setting [5]) was 8.13.

On to `CC1(CO)CNc2ncc(-c3ccnc(Nc4ccccc4C(F)(F)F)n3)cc21` (stereo not shown) [Compound 180], for which the pIC50 in assay [1] (setting [5]) is 6.69.

As to `COc1cc(N2CC(OC)C2)c(F)cc1Nc1nccc(-c2cnc3c(c2)C(C)(CO)CN3)n1` (single isomer, unassigned) [Compound 288], the pIC50 is 6.95 in assay [1] (setting [3]) and 7.24 in assay [1] (setting [5]).

For `COc1c(Nc2nccc(-c3cnc4c(c3)C(C)(CO)CN4)n2)cc(Cl)cc1N1CCOCC1` (stereo not shown) [Compound 307], the pIC50 was 7.91 in assay [1] (setting [3]) and 8.51 in assay [1] (setting [5]).

Turning to `COc1cc(N2CC3(CCOCC3)C2)ccc1Nc1nccc(-c2cnc3c(c2)C(C)(CO)CN3)n1` (stereo not shown) [Compound 242], the pIC50 in assay [1] (setting [3]) was 7.45; in assay [1] (setting [5]), 7.86.

Take `CCC1(CC#N)CNc2ncc(-c3ccnc(Nc4ccc(C(=O)N5CCC(OC)CC5)cc4OC)n3)cc21` (stereo not shown) [Compound 155]: the pIC50 in assay [1] (setting [5]) is 7.42.

With `CC1(CO)CNc2ncc(-c3ccnc(Nc4cc(Cl)ccc4Cl)n3)cc21` (stereo not shown) [Compound 196], in assay [1] (setting [5]), the pIC50 was 8.40.

As for `COc1cc(N2CCN(C)CC2)c(Cl)cc1Nc1nccc(-c2cnc3c(c2)C(C)(CO)CN3)n1` (single isomer, unassigned) [Compound 291], the pIC50 was 8.85 in assay [1] (setting [3]) and 9.30 in assay [1] (setting [5]).

`COc1cc(N2CC(OC)C2)c(F)cc1Nc1nccc(-c2cnc3c(c2)C(C)(CO)CN3)n1` (single isomer, unassigned) [Compound 298]: the pIC50 is 8.09 in assay [1] (setting [3]) and 8.64 in assay [1] (setting [5]).

As for `Cc1cc(N2CCOCC2)c(Cl)cc1Nc1nccc(-c2cnc3c(c2)C(C)(CO)CN3)n1` (stereo not shown) [Compound 361], the pIC50 is 8.11 in assay [1] (setting [3]) and 8.43 in assay [1] (setting [5]).

As to `CC(C)Oc1ccccc1Nc1nccc(-c2cnc3c(c2)C(C)(CO)CN3)n1` (stereo not shown) [Compound 175], the pIC50 in assay [1] (setting [5]) is 7.47.

Take `COc1cc(N2CCOCC2)ccc1Nc1nccc(-c2cnc3c(c2)C(C)(CO)CN3)n1` (stereo not shown) [Compound 171]: the pIC50 in assay [1] (setting [5]) is 7.91.

For the molecule `COc1cc(OCCN2CCN(C)CC2)c(Cl)cc1Nc1nccc(-c2cnc3c(c2)C(C)(CO)CN3)n1` (stereo not shown) [Compound 320], the pIC50 in assay [1] (setting [3]) is 8.57; in assay [1] (setting [5]) it was 9.00.

For the molecule `COc1cc(N2CCC(C)(O)CC2)c(Cl)cc1Nc1nccc(-c2cnc3c(c2)C(C)(CO)CN3)n1` (stereo not shown) [Compound 333], the pIC50 in assay [1] (setting [5]) is 8.66.

As for `COc1cc(N2CC3(CCOC3)C2)c(Cl)cc1Nc1nccc(-c2cnc3c(c2)C(C)(CO)CN3)n1` (stereo not shown) [Compound 284], the figures for the pIC50 in assay [1] (setting [3]) and in assay [1] (setting [5]) were 8.13 and 8.96, respectively.

Regarding `COc1cc(N2CC(C)(O)C2)c(Cl)cc1Nc1nccc(-c2cnc3c(c2)C(C)(CO)CN3)n1` (stereo not shown) [Compound 313], the pIC50 in assay [1] (setting [3]) was 8.16; in assay [1] (setting [5]), 8.31.

Regarding `COc1cc(N2CC(N(C)C)C2)c(Cl)cc1Nc1nccc(-c2cnc3c(c2)C(C)(CO)CN3)n1` (stereo not shown) [Compound 289], the results for the pIC50 in assay [1] (setting [3]) and in assay [1] (setting [5]) were 8.44 and 8.92, respectively.

In the case of `COc1cc(OC2CCN(C)C2)ccc1Nc1nccc(-c2cnc3c(c2)C(C)(CO)CN3)n1` (stereo not shown) [Compound 229], the pIC50 in assay [1] (setting [3]) is 7.34; in assay [1] (setting [5]) it was 7.43.

Take `CC1(CO)CNc2ncc(-c3ccnc(Nc4cc(F)ccc4Cl)n3)cc21` (stereo not shown) [Compound 197]: the pIC50 in assay [1] (setting [5]) was 7.95.

`COc1cc(N2CC3(CCOCC3)C2)c(C#N)cc1Nc1nccc(-c2cnc3c(c2)C(C)(CO)CN3)n1` (stereo not shown) [Compound 372]: the pIC50 in assay [1] (setting [3]) is 7.87; in assay [1] (setting [5]) it was 8.80.
